The values that follow come from article PMC5826917, “A small molecule inhibitor of Nicotinamide N-methyltransferase for the treatment of metabolic disorders” (Scientific Reports, 2018).

For one data set, the system named is cytochrome P450 enzymes. The settings on record: 20 µM.
Data set [1] concerns the target Nicotinic AChR alpha4 beta2 (nAChRa4b2) (Homo sapiens, UniProt P17787+P43681). The data set is described as follows: Selectivity panel: nAChRa4b2. The settings on record: read-out: I% (antagonistic or inhibitory), nAChRa4b2. Format: binding. Here is the method: (§1) Supplement 41598_2018_22081_MOESM1_ESM.docx, table 2: Supplementary table 2: Selectivity profile of JBSNF-000088 (at 10 µM) vs a panel of 34 receptors, channels and enzymes. | column: I% (antagonistic or inhibitory)

For another data set, the target named is T1, human NNMT (hNNMT) (Homo sapiens, UniProt P40261).
T1 construct: The full length NNMT proteins (1–264 amino acids) of human & mouse; 6 × His tag (N); TEV cleavage site (ENLYFQG) (N); made in house; host or cells: E. coli Rosetta2(DE3)pLysS
T1 sequence (P40261 whole entry, the tested form may be a part): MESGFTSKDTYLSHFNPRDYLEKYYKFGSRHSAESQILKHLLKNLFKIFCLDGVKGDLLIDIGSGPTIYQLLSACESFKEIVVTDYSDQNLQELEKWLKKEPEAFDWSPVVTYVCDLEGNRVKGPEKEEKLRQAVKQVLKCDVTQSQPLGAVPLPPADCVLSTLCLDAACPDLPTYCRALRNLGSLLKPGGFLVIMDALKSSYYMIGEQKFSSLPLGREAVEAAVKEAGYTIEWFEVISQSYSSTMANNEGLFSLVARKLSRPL
The data set is described as follows: Fluorescence based NNMT enzymatic assay (human). The settings on record: fluorescence based biochemical assay. As for the experimental part:
NNMT activity was measured with the fluorescence enzymatic assay[22],[23]. MNA formed in the NNMT reaction reacts with acetophenone in the presence of KOH and formic acid and forms a fluorescent product 2, 7- naphthyridine. JBSNF-000088 was screened using human, mouse and monkey NNMT enzymes. Different concentrations of inhibitors were preincubated along with the enzyme for 30 minutes at room temperature. Reaction was initiated by addition of SAM and nicotinamide mixture (7 µM, 20 µM, 8 µM SAM and 6 µM, 20 µM, 9 µM nicotinamide for human, mouse and monkey NNMT assays respectively) for 60 minutes at 37 °C. The final assay reaction mixture contained a buffer of 100 mM Tris Hcl pH 7.5, 0.04% BSA, 2 mM dithiothreitol and 1% DMSO. At the end of the incubation, the reaction was stopped by the addition of ethanol: acetophenone mix (75% ethanol: 25% acetophenone) and 5 M potassium hydroxide prepared with 50% ethanol. The reaction was incubated for 15 minutes following which 100 µL of 60% formic acid was added. […] The fluorescent product 2, 7- naphthyridine was measured using a Tecan reader with excitation at 375 nm and emission at 430 nm. The IC50 values were determined by fitting the inhibition curves (percent inhibition versus inhibitor concentration) using a four parametric sigmoidal dose response using GraphPad Prism software.

In data set [2] the test system is endogenous NNMT activity in differentiated 3T3L1 cells. The data set is described as follows: Cell based 3T3L1 assay (MNA levels by LC-MS/MS). Further details: species or system mouse. As for the experimental part: PE-Sciex API-4000 triple quadrupole (PerkinElmerSciex Instruments, Boston, MA) mass spectrometer was employed for this analysis. […] Detection of the ions was performed in the multiple reaction monitoring (MRM) mode, monitoring the transition of the m/z 137 precursor ion to the m/z 92 product ion for MNA and m/z 141 precursor ion to the m/z 84 product ion for d4-MNA (internal standard).
The supernatant was separated and transferred to pre-labeled HPLC vials and analyzed by LC-MS/MS system.

In data set [3] the target is Serotonin Receptor 2A (5HT2A) (Homo sapiens, UniProt P28223). As to the kind of experiment: Selectivity panel: 5HT2A. It counts as cell-based. Here is the method: (§2) Supplement 41598_2018_22081_MOESM1_ESM.docx, table 2: Supplementary table 2: Selectivity profile of JBSNF-000088 (at 10 µM) vs a panel of 34 receptors, channels and enzymes. | column: E% (agonistic); I% (antagonistic or inhibitory)
Serotonin Receptor 2A (5HT2A), sequence (P28223 whole entry): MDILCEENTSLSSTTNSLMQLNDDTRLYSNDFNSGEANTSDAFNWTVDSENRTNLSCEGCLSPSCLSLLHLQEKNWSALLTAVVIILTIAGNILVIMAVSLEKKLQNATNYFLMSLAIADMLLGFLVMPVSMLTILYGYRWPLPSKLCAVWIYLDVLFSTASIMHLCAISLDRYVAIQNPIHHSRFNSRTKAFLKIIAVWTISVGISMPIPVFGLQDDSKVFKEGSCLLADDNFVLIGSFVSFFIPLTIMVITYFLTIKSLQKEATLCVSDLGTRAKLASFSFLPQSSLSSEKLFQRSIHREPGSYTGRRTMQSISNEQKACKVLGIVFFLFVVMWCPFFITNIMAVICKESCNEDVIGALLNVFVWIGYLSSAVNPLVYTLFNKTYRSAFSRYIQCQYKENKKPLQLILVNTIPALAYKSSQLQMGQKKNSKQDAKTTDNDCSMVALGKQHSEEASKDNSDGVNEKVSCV

A further data set is described as follows: physchem. The settings on record: aqueous buffer.
Data set [4] concerns the target Muscarinic Receptor 3 (CHRM3) (Homo sapiens, UniProt P20309). As to the kind of experiment: Selectivity panel: CHRM3. Format: cell-based. As for the experimental part: as §2
Data set [5] deals with Histamine Receptor 2 (H2) (Homo sapiens, UniProt P25021). As to the kind of experiment: Selectivity panel: H2. It counts as cell-based.
Histamine Receptor 2 (H2), sequence (P25021 whole entry): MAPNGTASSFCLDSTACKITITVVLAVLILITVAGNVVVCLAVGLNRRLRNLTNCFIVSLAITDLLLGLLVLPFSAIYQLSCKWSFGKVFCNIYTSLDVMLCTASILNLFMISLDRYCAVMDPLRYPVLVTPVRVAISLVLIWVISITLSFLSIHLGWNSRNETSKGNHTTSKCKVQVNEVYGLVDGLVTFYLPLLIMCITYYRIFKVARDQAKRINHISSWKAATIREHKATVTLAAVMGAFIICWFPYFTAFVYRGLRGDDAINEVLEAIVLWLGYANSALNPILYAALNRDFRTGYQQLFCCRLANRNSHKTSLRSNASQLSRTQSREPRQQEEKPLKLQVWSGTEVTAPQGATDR
The test system of data set [6] is Glycine Receptor (strychnine-sensitive). As to the kind of experiment: Selectivity panel: glycine receptor. The settings on record: 10 µM. It counts as binding.
Data set [7] concerns Phencyclidine Receptor (PCP). As to the kind of experiment: Selectivity panel: PCP. Format: binding. The settings on record: 10 µM. Here is the method: as §1
The target of data set [8] is Serotonin Receptor 1A (5HT1A) (Homo sapiens, UniProt P08908). As to the kind of experiment: Selectivity panel: 5HT1A. Format: cell-based. As for the experimental part: as §2
Serotonin Receptor 1A (5HT1A), sequence (P08908 whole entry): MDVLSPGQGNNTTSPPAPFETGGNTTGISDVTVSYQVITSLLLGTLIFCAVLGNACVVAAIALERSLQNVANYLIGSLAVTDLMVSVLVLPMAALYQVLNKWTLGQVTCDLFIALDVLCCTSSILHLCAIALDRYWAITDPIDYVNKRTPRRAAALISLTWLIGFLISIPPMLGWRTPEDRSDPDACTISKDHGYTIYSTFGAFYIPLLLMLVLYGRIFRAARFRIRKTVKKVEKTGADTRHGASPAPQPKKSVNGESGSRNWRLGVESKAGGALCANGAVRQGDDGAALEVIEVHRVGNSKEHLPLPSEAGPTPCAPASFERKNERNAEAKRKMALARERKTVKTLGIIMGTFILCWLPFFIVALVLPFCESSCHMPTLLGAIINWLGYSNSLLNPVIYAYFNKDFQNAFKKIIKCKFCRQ
Data set [9] is described as follows: in vitro. The settings on record: human, Caco-2.
A short description of data set [10]: in vitro. The settings on record: human, hepatocytes.
The next data set deals with hERG (Homo sapiens, UniProt Q12809). The settings on record: 10 µM.
hERG, sequence (Q12809 whole entry): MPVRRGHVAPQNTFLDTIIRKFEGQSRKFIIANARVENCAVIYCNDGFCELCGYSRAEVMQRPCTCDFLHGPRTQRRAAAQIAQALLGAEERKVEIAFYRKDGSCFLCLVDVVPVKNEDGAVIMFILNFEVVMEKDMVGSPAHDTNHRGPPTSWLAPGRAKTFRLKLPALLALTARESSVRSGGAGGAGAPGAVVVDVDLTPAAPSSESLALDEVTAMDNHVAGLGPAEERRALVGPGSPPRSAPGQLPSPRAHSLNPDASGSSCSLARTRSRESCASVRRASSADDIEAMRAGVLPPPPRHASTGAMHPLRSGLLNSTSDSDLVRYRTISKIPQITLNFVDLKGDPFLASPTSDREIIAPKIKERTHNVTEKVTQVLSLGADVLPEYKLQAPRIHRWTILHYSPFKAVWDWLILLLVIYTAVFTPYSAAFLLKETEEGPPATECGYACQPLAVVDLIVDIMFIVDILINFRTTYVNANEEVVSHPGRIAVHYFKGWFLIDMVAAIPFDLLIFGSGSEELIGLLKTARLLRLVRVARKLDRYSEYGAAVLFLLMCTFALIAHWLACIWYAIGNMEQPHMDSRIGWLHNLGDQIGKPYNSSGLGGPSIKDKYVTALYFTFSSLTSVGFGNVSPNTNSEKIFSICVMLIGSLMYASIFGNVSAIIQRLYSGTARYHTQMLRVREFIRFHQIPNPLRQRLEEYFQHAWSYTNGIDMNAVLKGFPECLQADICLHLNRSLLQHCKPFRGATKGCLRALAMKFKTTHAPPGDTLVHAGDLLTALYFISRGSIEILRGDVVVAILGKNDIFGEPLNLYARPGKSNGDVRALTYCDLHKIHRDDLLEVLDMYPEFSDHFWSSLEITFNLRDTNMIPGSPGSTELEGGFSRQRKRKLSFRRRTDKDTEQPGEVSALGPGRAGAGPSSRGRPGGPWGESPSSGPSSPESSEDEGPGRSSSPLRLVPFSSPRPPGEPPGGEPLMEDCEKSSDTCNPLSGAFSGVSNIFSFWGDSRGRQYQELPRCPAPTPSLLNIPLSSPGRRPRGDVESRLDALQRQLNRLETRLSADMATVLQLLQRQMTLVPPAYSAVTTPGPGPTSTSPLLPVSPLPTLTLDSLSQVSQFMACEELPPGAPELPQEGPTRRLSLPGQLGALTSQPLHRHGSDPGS
A further data set has as its system plasma MNA levels. As for the experimental part:
Samples for MNA were analyzed employing a fit-for-purpose LC-MS/MS method. PE-Sciex API-4000 triple quadrupole (PerkinElmerSciex Instruments, Boston, MA) mass spectrometer was employed for this analysis. Samples (5 µL) were injected onto Kinetex HILIC (50 × 4.6 mm, 2.6 µm; Phenomenex, Torrance, CA, USA) column connected to Shimadzu VP (Shimadzu, Japan) LC system. The gradient mobile phase mixture of 0.2% formic acid and acetonitrile was delivered at a flow rate of 0.45 ml min-1 into the mass spectrometer electrospray ionization (ESI) chamber. Quantitation was achieved by MS/MS detection in positive ion mode for MNA and internal standard (d4–MNA). Detection of the ions was performed in the multiple reaction monitoring (MRM) mode, monitoring the transition of the m/z 137 precursor ion to the m/z 92 product ion for MNA and m/z 141 precursor ion to the m/z 84 product ion for d4-MNA (internal standard).
A simple protein precipitation extraction method was followed for extraction of N-methylnicotinamide from plasma and various tissue homogenate samples. The tissue samples were homogenized with 1:3 proportions of phosphate buffer saline (PBS) and this homogenate was used for N-Methylnicotinamide determinations. […] The supernatant was separated and transferred to pre-labeled HPLC vials and analyzed by LC-MS/MS system.

Muscarinic Receptor 3 (CHRM3), sequence (P20309 whole entry): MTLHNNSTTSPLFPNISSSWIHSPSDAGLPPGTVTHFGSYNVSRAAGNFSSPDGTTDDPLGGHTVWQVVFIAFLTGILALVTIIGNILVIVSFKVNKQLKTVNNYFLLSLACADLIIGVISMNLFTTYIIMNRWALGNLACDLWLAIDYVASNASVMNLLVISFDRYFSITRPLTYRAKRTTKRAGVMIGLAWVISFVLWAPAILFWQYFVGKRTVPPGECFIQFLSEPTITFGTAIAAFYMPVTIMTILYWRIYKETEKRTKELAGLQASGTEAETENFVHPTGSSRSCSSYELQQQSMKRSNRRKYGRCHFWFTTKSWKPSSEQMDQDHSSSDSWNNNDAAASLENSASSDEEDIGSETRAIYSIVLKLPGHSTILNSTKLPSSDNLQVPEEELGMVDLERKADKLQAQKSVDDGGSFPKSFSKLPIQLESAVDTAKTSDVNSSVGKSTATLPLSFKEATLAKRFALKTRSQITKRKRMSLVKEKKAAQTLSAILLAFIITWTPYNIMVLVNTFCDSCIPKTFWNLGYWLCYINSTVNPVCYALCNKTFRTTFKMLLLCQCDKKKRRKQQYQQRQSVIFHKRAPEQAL
Nicotinic AChR alpha4 beta2 (nAChRa4b2), sequence (P43681 29-627 limits assumed): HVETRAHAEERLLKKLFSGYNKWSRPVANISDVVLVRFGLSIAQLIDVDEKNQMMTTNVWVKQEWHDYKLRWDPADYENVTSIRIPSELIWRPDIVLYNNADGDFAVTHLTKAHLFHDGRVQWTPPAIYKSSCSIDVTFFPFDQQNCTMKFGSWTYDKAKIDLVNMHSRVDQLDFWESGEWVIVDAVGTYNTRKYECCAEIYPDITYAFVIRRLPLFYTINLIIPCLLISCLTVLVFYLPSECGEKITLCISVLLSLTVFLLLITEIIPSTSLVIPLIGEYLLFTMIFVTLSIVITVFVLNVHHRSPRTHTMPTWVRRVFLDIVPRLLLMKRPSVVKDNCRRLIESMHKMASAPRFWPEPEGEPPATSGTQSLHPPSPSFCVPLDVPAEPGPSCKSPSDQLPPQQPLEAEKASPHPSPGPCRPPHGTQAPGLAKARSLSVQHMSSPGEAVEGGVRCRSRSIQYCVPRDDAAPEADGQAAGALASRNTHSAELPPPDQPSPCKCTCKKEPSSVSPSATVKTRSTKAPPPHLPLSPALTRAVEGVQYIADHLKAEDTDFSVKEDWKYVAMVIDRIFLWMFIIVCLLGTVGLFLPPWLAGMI
Nicotinic AChR alpha4 beta2 (nAChRa4b2), sequence (P17787 26-502): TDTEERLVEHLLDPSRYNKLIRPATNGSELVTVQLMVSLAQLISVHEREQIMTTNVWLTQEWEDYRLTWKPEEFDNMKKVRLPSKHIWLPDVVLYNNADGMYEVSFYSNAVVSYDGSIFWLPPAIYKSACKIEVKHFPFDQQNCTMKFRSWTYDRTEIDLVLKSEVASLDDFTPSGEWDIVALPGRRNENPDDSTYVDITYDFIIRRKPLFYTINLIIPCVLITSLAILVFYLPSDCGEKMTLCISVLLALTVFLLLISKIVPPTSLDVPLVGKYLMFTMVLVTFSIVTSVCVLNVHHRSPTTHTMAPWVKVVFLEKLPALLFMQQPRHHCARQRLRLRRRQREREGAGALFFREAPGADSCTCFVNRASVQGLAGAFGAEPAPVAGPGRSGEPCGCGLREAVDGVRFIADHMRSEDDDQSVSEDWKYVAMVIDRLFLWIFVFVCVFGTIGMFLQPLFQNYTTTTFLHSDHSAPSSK

For the compound `COc1ccc(C(N)=O)cn1` [JBSNF-000088, 6-methoxynicotinamide], the “Cyp Inhibition” value with cytochrome P450 enzymes is >20 µM. The inhibition at 10 µM in data set [1] was 5%; in data set [3] (read-out: I% (antagonistic or inhibitory), 5HT2A) it was -9%; in [4] (read-out: I% (antagonistic or inhibitory), CHRM3), 21%; in [5] (read-out: I% (antagonistic or inhibitory), H2), 6%; in data set [8] (read-out: I% (antagonistic or inhibitory), 5HT1A), -13%. The IC50 against human NNMT (hNNMT) amounted to 1.8 µM; in data set [2] (Mus musculus, 3T3-L1, 24 h treatment, MNA by LC-MS/MS), 6.3 µM. For the same compound, in [2] (ratio of cellular IC50 values), the “right shift in potency, 3T3L1 cells compared to U2OS cells” value was “approximately 4 fold”. The “E% (agonistic), 5HT2A” value in data set [3] (10 µM) turned out to be 3%. Further, the solubility in the data set “physchem” was > 200 µM. The “E% (agonistic), CHRM3” value in data set [4] (10 µM) is reported as -1%. Moreover, in data set [5] (10 µM), the “E% (agonistic), H2” value is -1%. In data set [6], the “I% (antagonistic or inhibitory), Glycine Receptor (strychnine-sensitive)” value was -7%. Besides, the “I% (antagonistic or inhibitory), PCP” value in data set [7] is on record as -11%. In addition, the “E% (agonistic), 5HT1A” value in [8] (10 µM) stood at 5%. The Papp in “in vitro [9]” is 25.2 ×10⁻⁶ cm/s. In addition, the efflux ratio in “in vitro [9]” amounted to 1.04. Moreover, in the data set “in vitro [10]”, the share remaining at 0.5 h is > 70%. In addition, the hERG inhibition at hERG is < 30%. Also, the “plasma MNA levels” value in the data set on plasma MNA levels (50 mg kg^−1 orally, C57BL/6 mice, till 4 h post dosing) is given as “Significant reductions”. Further, in the data set with plasma MNA levels (Discussion statement), the “reduction of plasma MNA levels” value was ~ 50%.

One may read the IC50 as the concentration that inhibits the measured activity by half. A word on the solubility: it is the concentration that dissolves in the medium under given conditions. High values mean a readily soluble substance, low ones a poorly soluble substance. In general, Papp refers to a coefficient for how fast a substance crosses the barrier. A low value points to poor permeation. As a reminder, the efflux ratio is the permeability from basolateral to apical divided by that in the opposite direction, in the common usage. Broadly, the fraction remaining is the share of the starting amount still present when the sample was taken. Read a low fraction remaining as more turnover.
